Results from PubChem BioAssay AID260 (DTP/NCI, 2004).
Several values for one entry are separate records, joined by “and”; a condition that tells them apart may be missing. Equal entries are not always repeated. Toxic doses and inconclusive results are not listed.

System: CD2F1 mice, intracerebral L1210 leukemia, survival T/C
Assay: NCI In Vivo Anticancer Drug Screen. Data for tumor model L1210 Leukemia (intracerebral) in CD2F1 (CDF1) mice
Settings: higher = longer survival
Protocol: The antitumor activity of compounds was measured in mice bearing transplantable tumors. Survival or tumor size were measured and the results are expressed as the measurement made in the treated group (T) divided by the measurement made in the vehicle treated control group (C). The tumor model used in this assay is L1210 Leukemia (intracerebral) in CD2F1 (CDF1) mice

[1] = endpoint: median survival time, dose: 100.0 mg/kg/injection, schedule: Q01DX009 (ip), vehicle: saline
[2] = endpoint: median survival time, dose: 200.0 mg/kg/injection, schedule: Q01DX009 (ip), vehicle: saline
[3] = endpoint: median survival time, dose: 400.0 mg/kg/injection, schedule: Q01DX009 (ip), vehicle: saline
[4] = endpoint: mean survival time, dose: 1.5 mg/kg/injection, schedule: Q01DX009 (ip), vehicle: saline
[5] = endpoint: median survival time, dose: 80.0 mg/kg/injection, schedule: Q01DX001 (ip), vehicle: saline

Cc1cn(C2CC(O)C(CO)O2)c(=O)[nH]c1=O (configuration not stated)
T/C (endpoint: median survival time, dose: 100.0 mg/kg/injection, schedule: Q01DX009 (ip), vehicle: saline with Tween-80): 104 % of control
T/C [1]: 100 % of control and 103 % of control
T/C (endpoint: median survival time, dose: 200.0 mg/kg/injection, schedule: Q01DX009 (ip), vehicle: saline with Tween-80): 107 % of control
T/C [2]: 98 % of control and 100 % of control
T/C (endpoint: median survival time, dose: 400.0 mg/kg/injection, schedule: Q01DX009 (ip), vehicle: saline with Tween-80): 109 % of control
T/C [3]: 101 % of control
T/C (endpoint: median survival time, dose: 800.0 mg/kg/injection, schedule: Q01DX009 (ip), vehicle: saline with Tween-80): 114 % of control
T/C (endpoint: median survival time, dose: 800.0 mg/kg/injection, schedule: Q01DX009 (ip), vehicle: saline): 103 % of control and 113 % of control
T/C (endpoint: median survival time, dose: 1600.0 mg/kg/injection, schedule: Q01DX009 (ip), vehicle: saline with Tween-80): 106 % of control

COC(=O)c1ccccc1N=NN(C)C
T/C (endpoint: mean survival time, dose: 2.5 mg/kg/injection, schedule: Q01DX007 (ip), vehicle: other): 91 % of control
T/C (endpoint: mean survival time, dose: 5.0 mg/kg/injection, schedule: Q01DX007 (ip), vehicle: other): 100 % of control
T/C (endpoint: mean survival time, dose: 10.0 mg/kg/injection, schedule: Q01DX007 (ip), vehicle: other): 106 % of control

F
T/C (endpoint: median survival time, dose: 16.0 mg/kg/injection, schedule: Q01DX005 (ip), vehicle: saline): 100 % of control and 104 % of control
T/C (endpoint: median survival time, dose: 32.0 mg/kg/injection, schedule: Q01DX005 (ip), vehicle: saline): 88 % of control and 105 % of control

CC(CN1CC(=O)NC(=O)C1)N1CC(=O)NC(=O)C1 (configuration not stated)
T/C (endpoint: mean survival time, dose: 8.0 mg/kg/injection, schedule: Q01DX009 (ip), vehicle: Klucel (hydroxypropylcellulose) (HPC)): 123 % of control
T/C (endpoint: mean survival time, dose: 32.0 mg/kg/injection, schedule: Q01DX009 (ip), vehicle: Klucel (hydroxypropylcellulose) (HPC)): 152 % of control
T/C (endpoint: mean survival time, dose: 64.0 mg/kg/injection, schedule: Q01DX009 (ip), vehicle: Klucel (hydroxypropylcellulose) (HPC)): 163 % of control
T/C (endpoint: mean survival time, dose: 200.0 mg/kg/injection, schedule: Q04DX003 (ip), vehicle: steriod suspending solution): 162 % of control

CN(C)N=Nc1ccccc1
T/C (endpoint: mean survival time, dose: 6.25 mg/kg/injection, schedule: Q01DX009 (ip), vehicle: Klucel (hydroxypropylcellulose) (HPC)): 101 % of control and 104 % of control and 112 % of control
T/C (endpoint: mean survival time, dose: 12.5 mg/kg/injection, schedule: Q01DX009 (ip), vehicle: Klucel (hydroxypropylcellulose) (HPC)): 109 % of control and 112 % of control and 113 % of control
T/C (endpoint: mean survival time, dose: 25.0 mg/kg/injection, schedule: Q01DX009 (ip), vehicle: Klucel (hydroxypropylcellulose) (HPC)): 118 % of control
T/C (endpoint: mean survival time, dose: 50.0 mg/kg/injection, schedule: Q01DX009 (ip), vehicle: Klucel (hydroxypropylcellulose) (HPC)): 120 % of control and 107 % of control and 115 % of control

O=C1C=C(N2CC2)C(=O)C=C1N1CC1
T/C (endpoint: mean survival time, dose: 0.12 mg/kg/injection, schedule: Q01DX009 (ip), vehicle: saline): 102 % of control and 103 % of control and 104 % of control
T/C (endpoint: mean survival time, dose: 0.25 mg/kg/injection, schedule: Q01DX009 (ip), vehicle: saline): 102 % of control and 103 % of control and 108 % of control
T/C (endpoint: mean survival time, dose: 0.5 mg/kg/injection, schedule: Q01DX009 (ip), vehicle: saline): 103 % of control and 106 % of control and 108 % of control
T/C (endpoint: mean survival time, dose: 1.0 mg/kg/injection, schedule: Q01DX009 (ip), vehicle: saline): 89 % of control and 90 % of control and 98 % of control

Nc1n[nH]c(N)n1
T/C (endpoint: mean survival time, dose: 512.0 mg/kg/injection, schedule: Q12HX018 (ip), vehicle: saline): 96 % of control
T/C (endpoint: mean survival time, dose: 1024.0 mg/kg/injection, schedule: Q12HX018 (ip), vehicle: saline): 107 % of control
T/C (endpoint: mean survival time, dose: 2048.0 mg/kg/injection, schedule: Q12HX018 (ip), vehicle: saline): 110 % of control
T/C (endpoint: median survival time, dose: 128.0 mg/kg/injection, schedule: Q01DX005 (ip), vehicle: saline): 107 % of control and 116 % of control
T/C (endpoint: median survival time, dose: 256.0 mg/kg/injection, schedule: Q01DX005 (ip), vehicle: saline): 108 % of control and 111 % of control
T/C (endpoint: median survival time, dose: 512.0 mg/kg/injection, schedule: Q01DX005 (ip), vehicle: saline): 120 % of control and 115 % of control
T/C (endpoint: median survival time, dose: 1024.0 mg/kg/injection, schedule: Q01DX005 (ip), vehicle: saline): 119 % of control

Nc1ncn(C2OC(CO)C(O)C2O)c(=O)n1 (configuration not stated)
T/C (endpoint: mean survival time, dose: 0.75 mg/kg/injection, schedule: Q01DX009 (ip), vehicle: saline): 116 % of control
T/C [4]: 116 % of control
T/C (endpoint: mean survival time, dose: 3.0 mg/kg/injection, schedule: Q01DX009 (ip), vehicle: saline): 120 % of control
T/C (endpoint: median survival time, dose: 0.28 mg/kg/injection, schedule: Q03HX024 (ip), vehicle: saline): 100 % of control
T/C (endpoint: median survival time, dose: 0.5 mg/kg/injection, schedule: Q01DX005 (ip), vehicle: water): 103 % of control
T/C (endpoint: median survival time, dose: 0.59 mg/kg/injection, schedule: Q03HX024 (ip), vehicle: saline): 151 % of control
T/C (endpoint: median survival time, dose: 1.0 mg/kg/injection, schedule: Q01DX005 (ip), vehicle: water): 103 % of control
T/C (endpoint: median survival time, dose: 1.17 mg/kg/injection, schedule: Q03HX024 (ip), vehicle: saline): 261 % of control
T/C (endpoint: median survival time, dose: 2.0 mg/kg/injection, schedule: Q01DX005 (ip), vehicle: water): 114 % of control
T/C (endpoint: median survival time, dose: 2.25 mg/kg/injection, schedule: Q03HX024 (ip), vehicle: saline): 170 % of control
T/C (endpoint: median survival time, dose: 2.34 mg/kg/injection, schedule: Q03HX024 (ip), vehicle: saline): 293 % of control
T/C (endpoint: median survival time, dose: 3.12 mg/kg/injection, schedule: Q01DX009 (ip), vehicle: saline): 213 % of control
T/C (endpoint: median survival time, dose: 4.5 mg/kg/injection, schedule: Q03HX024 (ip), vehicle: saline): 113 % of control
T/C (endpoint: median survival time, dose: 4.69 mg/kg/injection, schedule: Q03HX024 (ip), vehicle: saline): 363 % of control
T/C (endpoint: median survival time, dose: 6.0 mg/kg/injection, schedule: Q01DX009 (ip), vehicle: saline): 173 % of control
T/C (endpoint: median survival time, dose: 6.25 mg/kg/injection, schedule: Q01DX009 (ip), vehicle: saline): 214 % of control
T/C (endpoint: median survival time, dose: 8.0 mg/kg/injection, schedule: Q01DX005 (ip), vehicle: water): 98 % of control
T/C (endpoint: median survival time, dose: 9.38 mg/kg/injection, schedule: Q03HX024 (ip), vehicle: saline): 681 % of control
T/C (endpoint: median survival time, dose: 12.0 mg/kg/injection, schedule: Q01DX009 (ip), vehicle: saline): 102 % of control
T/C (endpoint: median survival time, dose: 12.5 mg/kg/injection, schedule: Q01DX009 (ip), vehicle: saline): 250 % of control and 284 % of control and 325 % of control
T/C (endpoint: median survival time, dose: 18.75 mg/kg/injection, schedule: Q03HX024 (ip), vehicle: saline): 681 % of control
T/C (endpoint: median survival time, dose: 25.0 mg/kg/injection, schedule: Q01DX009 (ip), vehicle: saline): 298 % of control and 300 % of control and 348 % of control
T/C (endpoint: median survival time, dose: 50.0 mg/kg/injection, schedule: Q01DX009 (ip), vehicle: saline): 290 % of control and 295 % of control and 334 % of control
T/C (endpoint: median survival time, dose: 75.0 mg/kg/injection, schedule: Q03HX024 (ip), vehicle: saline): 98 % of control
T/C [1]: 348 % of control and 378 % of control and 386 % of control
T/C [2]: 151 % of control and 209 % of control
T/C [3]: 181 % of control

O=CC(NC(=O)N(CCCl)N=O)C(O)C(O)C(O)CO (configuration not stated)
T/C (endpoint: median survival time, dose: 3.13 mg/kg/injection, schedule: Q01DX001 (ip), vehicle: saline): 103 % of control
T/C (endpoint: median survival time, dose: 6.25 mg/kg/injection, schedule: Q01DX001 (ip), vehicle: saline): 106 % of control
T/C (endpoint: median survival time, dose: 12.5 mg/kg/injection, schedule: Q01DX001 (ip), vehicle: saline): 122 % of control
T/C (endpoint: median survival time, dose: 25.0 mg/kg/injection, schedule: Q01DX001 (ip), vehicle: DMSO): 152 % of control
T/C (endpoint: median survival time, dose: 50.0 mg/kg/injection, schedule: Q01DX001 (ip), vehicle: DMSO): 95 % of control
T/C (endpoint: median survival time, dose: 50.0 mg/kg/injection, schedule: Q01DX001 (ip), vehicle: saline): 92 % of control
T/C (endpoint: median survival time, dose: 50.0 mg/kg/injection, schedule: Q01DX001 (oral), vehicle: saline): 97 % of control

CN(C)P1(=O)NCCCO1 (configuration not stated)
T/C [5]: 91 % of control
T/C (endpoint: median survival time, dose: 160.0 mg/kg/injection, schedule: Q01DX001 (ip), vehicle: saline): 90 % of control
T/C (endpoint: median survival time, dose: 320.0 mg/kg/injection, schedule: Q01DX001 (ip), vehicle: saline): 92 % of control
T/C (endpoint: median survival time, dose: 640.0 mg/kg/injection, schedule: Q01DX001 (ip), vehicle: saline): 95 % of control
T/C (endpoint: median survival time, dose: 1280.0 mg/kg/injection, schedule: Q01DX001 (ip), vehicle: saline): 91 % of control

O=C1C(NCCO)=C(N2CC2)C(=O)C(NCCO)=C1N1CC1
T/C (endpoint: mean survival time, dose: 0.37 mg/kg/injection, schedule: Q01DX009 (ip), vehicle: saline): 111 % of control
T/C [4]: 119 % of control and 122 % of control

C1CN(P2(N3CC3)=NP(N3CC3)(N3CC3)=NP(N3CC3)(N3CC3)=N2)CCO1 (configuration not stated)
T/C (endpoint: median survival time, dose: 20.0 mg/kg/injection, schedule: Q01DX001 (ip), vehicle: saline): 92 % of control
T/C (endpoint: median survival time, dose: 40.0 mg/kg/injection, schedule: Q01DX001 (ip), vehicle: saline): 95 % of control
T/C [5]: 101 % of control

CC1CC(C)(O)CC(C(O)CC2CC(=O)NC(=O)C2)C1=O (configuration not stated)
T/C (endpoint: mean survival time, dose: 0.02 mg/kg/injection, schedule: Q01DX009 (ip), vehicle: saline): 97 % of control
T/C (endpoint: mean survival time, dose: 0.04 mg/kg/injection, schedule: Q01DX009 (ip), vehicle: saline): 92 % of control
T/C (endpoint: mean survival time, dose: 0.08 mg/kg/injection, schedule: Q01DX009 (ip), vehicle: saline): 110 % of control
T/C (endpoint: mean survival time, dose: 0.16 mg/kg/injection, schedule: Q01DX009 (ip), vehicle: saline): 100 % of control
T/C (endpoint: mean survival time, dose: 0.32 mg/kg/injection, schedule: Q01DX009 (ip), vehicle: saline): 106 % of control
